According to PMC3236199, “Development of Derivatives of 3, 3′-Diindolylmethane as Potent Leishmania donovani Bi-Subunit Topoisomerase IB Poisons” (PLoS ONE, 2011):
Where two headings read alike, the source gives them in different places.

Tests used:
[1] = system: L. donovani AG83 promastigotes; assay: Cell viability assay, wild type promastigotes; assay type: cell-based; conditions: Leishmania donovani, 12 h, read-out: growth inhibited
Protocol: L. donovani strain AG83 and DIM resistant parasite DR50 promastigotes were grown at 22°C in M199 liquid media supplemented with 10% FBS as described. Axenic amastigotes were cultured in modified M199 medium (pH 5.3) supplemented with 10 mM sodium succinate, 40 mM HEPES and 25% FCS and maintained at 37°C with 5% CO2.The effect of drugs on the viability of Leishmania parasites was determined by direct microscopic counting using light microscope (40× objective) in a haemocytometer. The cells at the exponential phase were collected and transferred into 24-well plate (3.5×10^6 cells per well). The cells were then incubated for 12 h in the presence of various concentrations of DIM, DPDIM, DMDIM and DMODIM (1, 5, 10, 20 and 50 µM). For other experiments, 10^4 cells were taken and grown in presence of the respective derivatives for a period of 30 days. For each 5 day interval, a small amount of aliquots were taken out. After incubation the cells were centrifuged and cell pellet was washed with PBS (1×) twice and finally suspended in 1 ml PBS (1×). Fifty µl of aliquot was taken, mixed with 0.4% trypan blue solution and incubated for 3 min at 22°C. One drop of the mixture was transferred to haemocytometer and the clear (live) and blue (dead) cells were counted. The total number of viable cells in aliquot was calculated by multiplying the total number of viable cells by 2 (the dilution factor for trypan blue). To obtain the total number of cells in the aliquot, total number of viable and nonviable cells were added up and multiplied by 2. Percentages of viable cells were calculated using the formula: [drawing 1]
The effects of different derivatives of DIM on cell proliferation were tested by incubating wild type and DIM resistant L. donovani promastigotes (3.5×10^6 cells/ml) with the drugs. […] The number of live promastigotes was measured by differential staining of live and dead cells using light microscope under 40× objective (Fig. 2). […]
Figure 2 Effect of DIM-derivatives on Leishmania parasites. Growth of L. donovani AG83 promastigotes (A) and DIM resistant promastigotes (B) were monitored in presence of increasing concentrations (1, 5, 10, 20 and 50 µM) of DIM, DPDIM, DMDIM and DMODIM for 12 h. […] Change in IC50 values after a prolong exposure to DIM derivatives (C) has been assessed as described in Materials and Methods. After every 5 day a small aliquot was taken out and number of viable promastigotes was counted for each concentration. IC50 values have been determined from them using Graph Pad Prsim ver 5.0 software and a graphical plot was generated over time. Growth of the parasites treated with the compounds was expressed as percentage of the viable promastigotes compared with that of control. […]

[2] = system: F270L mutant topoisomerase I; assay: Equilibrium (duplex oligonucleotide) cleavage assay, F270L mutant; assay type: biochemical, Leishmania donovani; conditions: 20 µM, with respect to cleavable complex formed without drug with wild type enzyme
Protocol: Cells were lysed and proteins were purified through Ni^+2-NTA agarose column (Qiagen) followed by phosphocellulose column chromatography (P11 cellulose, Whatman) as described. Finally the purified proteins LdTOP1L, LdTOP1L^F270L and LdTOP1S were stored at −70°C. Purified LdTOP1L and LdTOP1L^F270L were mixed with purified LdTOP1S separately and at a molar ratio of 1∶1 at a total protein concentration of 0.5 mg/ml in reconstitution buffer (50 mM potassium phosphate, pH 7.5, 0.5 mM DTT, 1 mM EDTA, 0.1 mM PMSF, 10% glycerol). The mixtures were dialyzed over night at 4°C and the dialyzed fractions were used for the plasmid relaxation activity.
The 25-mer oligonucleotide 1 (5′-GAAAAAAGACTT↓AGAAAAATTTTTA-3′) was 5′-end labeled with [γ^32P] ATP and annealed with oligonucleotide 2 (5′-[…]-3′) to make a duplex oligonucleotide containing a topoisomerase I binding motif as described. Cleavage assay was carried out using 20-fold molar excess of enzymes over duplex 25-mer DNA (enzymes, 0.2 µM; DNA, 10 nM). The reactions were carried out in standard assay condition in the absence or presence of drugs at 37°C for 30 min. All the reactions were stopped by addition of SDS to a final concentration of 2% (w/v), digested with 5 µl of 1 mg/ml trypsin and analyzed by 12% denaturing polyacrylamide gel followed by autoradiography. The amount of strand cleavage in the presence of drugs was determined by densitometry of the film as described.
The effect of DIM and its derivatives on L. donovani topoisomerase I was examined by plasmid DNA cleavage assay as described. The topoisomerase reaction has three general mechanistic steps: (i) binding of enzyme to the substrate DNA, (ii) single strand breakage and subsequent strand rotation through the break leading to change in linking number, and (iii) strand religation. The second step of reaction is the introduction of a single-stranded nick in the phosphodiester bond of the DNA, through which an intact strand is allowed to pass. […]

c1ccc2c(Cc3c[nH]c4ccccc34)c[nH]c2c1 [DIM, 3, 3′-diindolyl methane, reference compound]
inhibition at 20 µM ([1]; 20 µM, wild type AG83 promastigotes): 88%

Cc1[nH]c2ccccc2c1Cc1c(C)[nH]c2ccccc12 [DMDIM, 2,2′-dimethyl 3,3′-diindolyl methane]
extent of cleavage [2]: ~53%
inhibition at 20 µM [1]: 83%

COc1ccc2[nH]cc(Cc3c[nH]c4ccc(OC)cc34)c2c1 [DMODIM, 5,5′-dimethoxy 3,3′-diindolyl methane]
extent of cleavage [2]: ~50%
inhibition at 20 µM [1]: 70%

c1ccc(-c2[nH]c3ccccc3c2Cc2c(-c3ccccc3)[nH]c3ccccc23)cc1 [DPDIM, 2,2′-diphenyl 3,3′-diindolyl methane]
extent of cleavage [2]: 56%
inhibition at 20 µM [1]: 96%
